Test results reported in patent US20150185241A1, “Tilidine Immunodetection” (Randox Laboratories Limited, priority 2013, published 2015).
Where a name gives a salt, the structure may show the parent alone.

What was measured:
[1] = tested on: tilidine-specific antibody raised from Immunogen-II; test: Competitive ELISA (Example 8): different Ig fraction of antiserum raised to Immunogen II, hapten-HRP conjugate of Example 6 as detecting agent; assay type: binding; conditions: for % cross-reactivity: relative to tilidine HCl = 100; for % cross-reactivity / IC50: different Ig fraction (Example 8); for IC50: standard concentration which produces 50% B/Bo
Protocol: The wells of an enhanced binding 96 well polystyrene microtitre plate were coated with a different Ig fraction (to that exemplified in Example 7) of the antiserum raised to Immunogen II (N-(carboxypropyl)nortilidine-BTG—example 5), diluted in 10 mMTris, pH 8.5 (125 μl/well). The appropriate antibody coating dilution was determined using standard ELISA checkerboard techniques. The plate was incubated for 2 hours at 37° C., washed 4 times over 10 minutes with Tris buffered saline, containing Tween 20 (TBST) and tapped dry. Standard solutions of tilidine hydrochloride (a mixture of the two trans isomers—the 1R, 2S and the 1S, 2R trans isomers) and bisnortilidine hydrochloride (a mixture of the two trans isomers—the 1R, 2S and the 1S, 2R trans isomers) were prepared in TBST at 0, 0.313 ng/ml, 0.625 ng/ml, 1.25 ng/ml, 2.5 ng/ml, 5 ng/ml, 10 ng/ml and 20 ng/ml and 50 μl of each was added to the appropriate wells. 75 μl of conjugate of example 6 (hapten-HRP), diluted in Tris buffer (pH7.2) containing EDTA, D-mannitol, sucrose, thimerosal and BSA was added to each of the wells. The appropriate dilution of conjugate was also determined using standard ELISA checkerboard techniques. The plate was incubated at 25° C. for 1 hour. Excess unbound conjugate was removed by washing 6 times over a 10-15 minute period with TBST. 125 μl of tetramethylbenzidine (TMB) substrate solution was added to each well of the plate that was then incubated for 20 minutes in the dark at room temperature. The reaction was terminated by the addition of 125 μl of 0.2M H2SO4 to each well. The absorbance was then measured at 450 nm using a microtitre plate reader.

[2] = tested on: tilidine-specific antibody raised from Immunogen-II; test: Competitive ELISA (Example 7): Ig fraction of antiserum raised to Immunogen II, hapten-HRP conjugate of Example 6 as detecting agent; assay type: binding
Protocol: The wells of an enhanced binding 96 well polystyrene microtitre plate were coated with the Ig fraction of the antiserum raised to Immunogen II (N-(carboxypropyl)nortilidine-BTG—example 5), diluted in 10 mMTris, pH 8.5 (125 μl/well). The appropriate antibody coating dilution was determined using standard ELISA checkerboard techniques. The plate was incubated for 2 hours at 37° C., washed 4 times over 10 minutes with Tris buffered saline, containing Tween 20 (TBST) and tapped dry. Standard solutions of tilidine hydrochloride (a mixture of the two trans isomers—the 1R, 2S and the 1S, 2R trans isomers) and nortilidine hydrochloride (a mixture of the two trans isomers—the 1R, 2S and the 1S, 2R trans isomers) were prepared in TBST at 0, 0.625 ng/ml, 1.25 ng/ml, 2.5 ng/ml, 5 ng/ml, 10 ng/ml, 20 ng/ml and 40 ng/ml and 50 μl of each was added to the appropriate wells. 75 μl of conjugate of example 6 (hapten-HRP), diluted in Tris buffer (pH7.2) containing EDTA, D-mannitol, sucrose, thimerosal and BSA was added to each of the wells. The appropriate dilution of conjugate was also determined using standard ELISA checkerboard techniques. The plate was incubated at 25° C. for 1 hour. Excess unbound conjugate was removed by washing 6 times over a 10-15 minute period with TBST. 125 μl of tetramethylbenzidine (TMB) substrate solution was added to each well of the plate that was then incubated for 20 minutes in the dark at room temperature. The reaction was terminated by the addition of 125 μl of 0.2M H2SO4 to each well. The absorbance was then measured at 450 nm using a microtitre plate reader.

| Compound | % cross-reactivity [1] [%] | % B/Bo ([1]; standard 0.313 ng/ml) [%] | % B/Bo ([1]; standard 0.625 ng/ml) [%] | % B/Bo ([1]; standard 1.250 ng/ml) [%] | % B/Bo ([1]; standard 2.500 ng/ml) [%] | % B/Bo ([1]; standard 5.000 ng/ml) [%] | % B/Bo ([1]; standard 10.000 ng/ml) [%] | % B/Bo ([1]; standard 20.000 ng/ml) [%] | IC50 [1] [ng/mL] | % cross-reactivity ([2]; relative to tilidine HCl = 100, Ig fraction of Example 7) [%] | % B/Bo ([2]; standard 0.625 ng/ml) [%] | % B/Bo ([2]; standard 1.250 ng/ml) [%] | % B/Bo ([2]; standard 2.500 ng/ml) [%] | % B/Bo ([2]; standard 5.000 ng/ml) [%] | % B/Bo ([2]; standard 10.000 ng/ml) [%] | % B/Bo ([2]; standard 20.000 ng/ml) [%] | % B/Bo ([2]; standard 40.000 ng/ml) [%] | IC50 ([2]; standard concentration which produces 50% B/Bo, Ig fraction of Example 7) [ng/mL] |
| --- | --- | --- | --- | --- | --- | --- | --- | --- | --- | --- | --- | --- | --- | --- | --- | --- | --- | --- |
| (±)-trans-ethyl 2-amino-1-phenylcyclohex-3-enylcarboxylate [Bisnortilidine HCl] | 14.73 | 86 | 82 | 76 | 68 | 59 | 50 | 39 | 10.0 | – | – | – | – | – | – | – | – | – |
| CCOC(=O)[C@]1(c2ccccc2)CCC=C[C@H]1N(C)C (racemic) [Tilidine HCl, (±)-trans-ethyl 2-(N,N-dimethylamino)-1-phenylcyclohex-3-enylcarboxylate] | 100 | 70 | 63 | 52 | 41 | 31 | 21 | 14 | 1.473 | 100 | 63 | 55 | 46 | 37 | 28 | 20 | 14 | 1.820 |
